EP4745135A1 (Gluetacs Therapeutics (Shanghai) Co., Ltd., priority 2023, dated 2025)

Columns and labels:
[1] = biological target: T1, CK1α (Homo sapiens, UniProt P48729+Q96SW2); assay: Western blot, degradation of substrate protein in hPBMCs; type: cell-based
T1 construct: effects of the compounds of the present disclosure on the expression of target proteins in cells; endogenous in cells; host or cells: human PBMCs (Milecell Biotechnologies)
Experimental: (§1) Conventional Western blot assay was performed to evaluate the effects of the compounds of the present disclosure on the expression of target proteins in cells. • (1) Cell Seeding and Protein Harvesting: Human peripheral blood mononuclear cells (hPBMCs) at a density of 1×10^6 cells/mL were thawed according to the PBMC Recovery Protocol (Milecell Biotechnologies Inc, Shanghai). […] After 24 hours of compounds treatment, cells were harvested and lysed in RIPA protein lysate containing protease inhibitors on ice for 30 min, followed by centrifugation. The supernatant was aspirated as the extracted total cell protein. The protein concentration of the supernatant was determined using the conventional BCA (Bicinchoninic Acid) assay. • (2) To the collected supernatant, 5X SDS sample loading buffer was added, followed by denaturation at 95°C for 5 minutes. The denatured samples were then separated by SDS-PAGE electrophoresis on a polyacrylamide gel, transferred onto a nitrocellulose membrane (0.45 µm NC membrane), blocked with blocking buffer at room temperature for 1 hour, and subjected to antibody incubation and development procedures according to the antibody manufacturer's instructions (Cell Signaling Technology Company).
(§2) Half-Maximal Degradation Concentration value (the drug concentration required for degrading proteins by 50%, abbreviated as DC50) reads method: comparing the grayscale values of Western blot bands from drug-treated samples with those from blank DMSO-treated controls, and identifying the drug concentration range at which the grayscale value is half that of the DMSO-treated control bands.
(§3) DC50 values can be calculated using ImageJ software to measure grayscale values of Western blot bands from drug-treated samples. The concentration-response curve is fitted to estimate the drug concentration corresponding to half the grayscale value.
(§4) Target protein remaining (%) refers to the percentage of target protein remaining in cells after treatment with protein degrader compounds.
(§5) Calculation method for target protein remaining (%): Use ImageJ software to measure grayscale values of Western blot bands from drug (protein degrader)-treated samples. The grayscale value of drug-treated bands is divided by that of internal control protein bands, and the resulting quotient is normalized to obtain the relative percentage of remaining target protein after protein degrader treatment.
(§6) Target protein degradation rate (%) = 1−target protein remaining (%). [formula]

[2] = biological target: T2, IKZF1 (Homo sapiens, UniProt Q13422+Q96SW2); assay: as above; type: cell-based
T2 construct: effects of the compounds of the present disclosure on the expression of target proteins in cells; endogenous in cells; host or cells: human PBMCs (Milecell Biotechnologies)
Experimental: as §1, §2, §3, §4, §5, §6

[3] = biological target: T3, IKZF2 (Homo sapiens, UniProt Q96SW2+Q9UKS7); assay: as above; type: cell-based
T3 construct: effects of the compounds of the present disclosure on the expression of target proteins in cells; endogenous in cells; host or cells: human PBMCs (Milecell Biotechnologies)
Experimental: as §1, §2, §3, §4, §5, §6

[4] = biological target: T4, IKZF3 (Homo sapiens, UniProt Q96SW2+Q9UKT9); assay: as above; type: cell-based
T4 construct: effects of the compounds of the present disclosure on the expression of target proteins in cells; endogenous in cells; host or cells: human PBMCs (Milecell Biotechnologies)
Experimental: as §1, §2, §3, §4, §5, §6

[5] = biological target: T5, WEE1 (Homo sapiens, UniProt P30291+Q96SW2); assay: as above; type: cell-based
T5 construct: effects of the compounds of the present disclosure on the expression of target proteins in cells; endogenous in cells; host or cells: human PBMCs (Milecell Biotechnologies)
Experimental: as §1, §2, §3, §4, §5, §6

[6] = tested on: GSPT1; assay: as above; type: cell-based, Human
Experimental: as §1, §2, §3, §4, §5, §6

[7] = biological target: T6, human Cereblon WT GST-tagged protein (Homo sapiens, UniProt Q96SW2); assay: CRBN-binding affinity, HTRF (CEREBLON BINDING kit); settings: for inhibition at 0.5 µM: read-out: Inhibition Rate at 0.5 µM (%); for inhibition at 2 µM: read-out: Inhibition Rate at 2 µM (%)
T6 construct: purchased CISBIO 64BDCRBNPEH

[8] = 24 hours treatment, compounds at 50 nM and 500 nM (concentration behind the class not stated)
[9] = Western blot, 24 hours of compound treatment, compounds tested at 50 nM and 500 nM (concentration for the table not stated)

T1 sequence (P48729 whole entry): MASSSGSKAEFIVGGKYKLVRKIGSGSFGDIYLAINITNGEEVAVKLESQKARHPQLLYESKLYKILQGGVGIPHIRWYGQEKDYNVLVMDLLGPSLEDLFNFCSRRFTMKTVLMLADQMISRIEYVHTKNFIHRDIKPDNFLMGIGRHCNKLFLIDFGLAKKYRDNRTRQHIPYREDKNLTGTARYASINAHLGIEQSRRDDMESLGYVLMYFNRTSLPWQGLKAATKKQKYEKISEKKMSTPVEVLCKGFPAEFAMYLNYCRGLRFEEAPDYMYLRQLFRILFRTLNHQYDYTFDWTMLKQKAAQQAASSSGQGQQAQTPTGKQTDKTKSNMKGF
T1 sequence (Q96SW2 whole entry): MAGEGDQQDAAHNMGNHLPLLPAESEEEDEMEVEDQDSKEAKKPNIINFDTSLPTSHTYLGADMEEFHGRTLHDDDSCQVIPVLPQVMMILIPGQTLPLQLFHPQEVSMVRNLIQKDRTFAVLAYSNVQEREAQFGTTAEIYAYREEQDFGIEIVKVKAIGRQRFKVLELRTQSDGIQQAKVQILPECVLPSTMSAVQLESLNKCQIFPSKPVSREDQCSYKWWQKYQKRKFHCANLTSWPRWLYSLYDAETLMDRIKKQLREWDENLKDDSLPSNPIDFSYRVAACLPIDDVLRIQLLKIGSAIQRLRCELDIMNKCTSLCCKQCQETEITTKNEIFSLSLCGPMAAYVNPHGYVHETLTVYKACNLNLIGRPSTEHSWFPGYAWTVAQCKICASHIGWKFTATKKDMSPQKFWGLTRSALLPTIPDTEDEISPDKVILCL
T1 sequence (Q16531 whole entry partner): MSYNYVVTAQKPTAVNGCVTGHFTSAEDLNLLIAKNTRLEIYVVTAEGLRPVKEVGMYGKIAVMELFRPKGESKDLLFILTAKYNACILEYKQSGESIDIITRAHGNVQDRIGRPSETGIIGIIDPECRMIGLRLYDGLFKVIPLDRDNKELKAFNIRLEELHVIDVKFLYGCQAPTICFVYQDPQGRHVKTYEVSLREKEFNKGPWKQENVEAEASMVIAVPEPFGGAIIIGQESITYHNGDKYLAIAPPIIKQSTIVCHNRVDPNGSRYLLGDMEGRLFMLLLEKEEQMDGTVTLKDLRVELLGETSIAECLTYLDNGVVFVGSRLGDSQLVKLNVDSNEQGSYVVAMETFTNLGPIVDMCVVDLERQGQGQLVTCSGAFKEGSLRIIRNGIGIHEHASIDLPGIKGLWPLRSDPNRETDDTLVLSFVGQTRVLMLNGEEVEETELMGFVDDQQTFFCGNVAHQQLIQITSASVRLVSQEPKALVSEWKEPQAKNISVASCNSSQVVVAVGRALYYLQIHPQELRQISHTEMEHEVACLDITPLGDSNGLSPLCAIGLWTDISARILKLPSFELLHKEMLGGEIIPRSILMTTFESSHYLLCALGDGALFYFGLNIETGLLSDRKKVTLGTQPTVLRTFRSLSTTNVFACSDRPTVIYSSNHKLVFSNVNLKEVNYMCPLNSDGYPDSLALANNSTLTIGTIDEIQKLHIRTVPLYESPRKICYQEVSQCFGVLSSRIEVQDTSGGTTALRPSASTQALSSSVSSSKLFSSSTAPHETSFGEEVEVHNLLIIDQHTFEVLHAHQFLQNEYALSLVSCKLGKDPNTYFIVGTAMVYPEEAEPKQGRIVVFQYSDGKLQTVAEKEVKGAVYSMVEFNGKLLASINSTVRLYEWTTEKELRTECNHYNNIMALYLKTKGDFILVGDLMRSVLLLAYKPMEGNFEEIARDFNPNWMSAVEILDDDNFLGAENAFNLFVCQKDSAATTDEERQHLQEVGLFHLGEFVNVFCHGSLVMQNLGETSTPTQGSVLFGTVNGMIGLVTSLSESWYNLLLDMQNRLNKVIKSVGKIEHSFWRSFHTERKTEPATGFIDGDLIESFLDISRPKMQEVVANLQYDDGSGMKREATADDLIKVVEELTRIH
T2 sequence (Q13422 whole entry): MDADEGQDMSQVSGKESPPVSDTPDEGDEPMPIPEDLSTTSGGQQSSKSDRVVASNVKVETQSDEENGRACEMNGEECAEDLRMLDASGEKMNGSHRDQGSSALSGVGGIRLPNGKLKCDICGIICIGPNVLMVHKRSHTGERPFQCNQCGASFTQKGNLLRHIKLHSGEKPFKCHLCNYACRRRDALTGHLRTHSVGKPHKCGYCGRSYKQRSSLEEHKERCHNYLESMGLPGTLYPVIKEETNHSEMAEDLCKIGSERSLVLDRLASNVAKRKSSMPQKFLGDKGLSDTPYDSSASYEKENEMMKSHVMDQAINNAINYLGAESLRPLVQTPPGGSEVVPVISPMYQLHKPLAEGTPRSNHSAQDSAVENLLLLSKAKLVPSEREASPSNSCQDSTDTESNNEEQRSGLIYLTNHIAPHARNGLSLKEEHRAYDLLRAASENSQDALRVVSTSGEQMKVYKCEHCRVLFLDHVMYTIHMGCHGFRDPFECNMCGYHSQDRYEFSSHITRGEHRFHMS
T2 sequence (Q96SW2 whole entry): as the sequence (Q96SW2 whole entry) above
T2 sequence (Q16531 whole entry partner): as the sequence (Q16531 whole entry partner) above
T6 sequence (Q96SW2 whole entry): as the sequence (Q96SW2 whole entry) above
T3 sequence (Q9UKS7 whole entry): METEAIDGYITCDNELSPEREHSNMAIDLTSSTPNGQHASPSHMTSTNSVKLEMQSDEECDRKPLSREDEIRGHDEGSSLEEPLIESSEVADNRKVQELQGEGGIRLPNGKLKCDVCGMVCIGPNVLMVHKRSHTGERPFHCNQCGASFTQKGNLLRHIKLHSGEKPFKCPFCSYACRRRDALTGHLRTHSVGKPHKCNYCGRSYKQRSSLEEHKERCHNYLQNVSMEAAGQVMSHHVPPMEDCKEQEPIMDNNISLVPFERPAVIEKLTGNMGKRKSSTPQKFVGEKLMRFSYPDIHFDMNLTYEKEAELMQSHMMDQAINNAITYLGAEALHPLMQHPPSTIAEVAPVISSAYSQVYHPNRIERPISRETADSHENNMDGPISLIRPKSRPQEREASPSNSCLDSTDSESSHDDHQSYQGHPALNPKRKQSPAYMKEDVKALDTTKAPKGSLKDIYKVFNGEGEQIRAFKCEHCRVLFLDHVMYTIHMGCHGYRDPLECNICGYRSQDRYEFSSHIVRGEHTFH
T3 sequence (Q96SW2 whole entry): as the sequence (Q96SW2 whole entry) above
T3 sequence (Q16531 whole entry partner): as the sequence (Q16531 whole entry partner) above
T5 sequence (P30291 whole entry): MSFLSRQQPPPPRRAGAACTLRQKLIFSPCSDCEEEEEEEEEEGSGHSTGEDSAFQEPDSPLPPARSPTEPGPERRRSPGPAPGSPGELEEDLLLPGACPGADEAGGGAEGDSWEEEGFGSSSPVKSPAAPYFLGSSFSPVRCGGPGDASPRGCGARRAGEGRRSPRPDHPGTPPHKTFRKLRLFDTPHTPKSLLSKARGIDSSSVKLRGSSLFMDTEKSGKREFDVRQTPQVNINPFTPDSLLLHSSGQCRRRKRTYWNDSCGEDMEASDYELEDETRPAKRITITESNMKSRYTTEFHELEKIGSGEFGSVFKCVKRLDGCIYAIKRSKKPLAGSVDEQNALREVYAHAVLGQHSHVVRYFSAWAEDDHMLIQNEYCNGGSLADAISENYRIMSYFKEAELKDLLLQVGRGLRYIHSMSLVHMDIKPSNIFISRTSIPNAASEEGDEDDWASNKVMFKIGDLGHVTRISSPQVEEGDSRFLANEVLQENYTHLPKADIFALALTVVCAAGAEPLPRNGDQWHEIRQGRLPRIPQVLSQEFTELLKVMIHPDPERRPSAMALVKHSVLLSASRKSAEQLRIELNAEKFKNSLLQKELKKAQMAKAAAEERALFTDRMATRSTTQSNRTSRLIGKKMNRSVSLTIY
T5 sequence (Q96SW2 whole entry): as the sequence (Q96SW2 whole entry) above
T5 sequence (Q16531 whole entry partner): as the sequence (Q16531 whole entry partner) above
T4 sequence (Q9UKT9 whole entry): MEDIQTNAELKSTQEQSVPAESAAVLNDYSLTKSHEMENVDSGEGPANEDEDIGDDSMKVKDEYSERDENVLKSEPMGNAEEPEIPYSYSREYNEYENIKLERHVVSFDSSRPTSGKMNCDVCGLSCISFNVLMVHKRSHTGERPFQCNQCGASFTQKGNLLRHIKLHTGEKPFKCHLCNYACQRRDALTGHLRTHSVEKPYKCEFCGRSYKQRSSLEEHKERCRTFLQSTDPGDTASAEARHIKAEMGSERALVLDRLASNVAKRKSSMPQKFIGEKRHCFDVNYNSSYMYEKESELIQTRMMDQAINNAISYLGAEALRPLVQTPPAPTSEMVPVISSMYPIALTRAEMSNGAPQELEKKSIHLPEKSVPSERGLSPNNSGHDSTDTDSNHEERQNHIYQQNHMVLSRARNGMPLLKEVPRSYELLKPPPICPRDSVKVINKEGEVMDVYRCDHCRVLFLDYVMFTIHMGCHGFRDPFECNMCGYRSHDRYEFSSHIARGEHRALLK
T4 sequence (Q96SW2 whole entry): as the sequence (Q96SW2 whole entry) above
T4 sequence (Q16531 whole entry partner): as the sequence (Q16531 whole entry partner) above

| Structure (SMILES) | CK1α substrate protein remaining % [1, 8] | IKZF 1 substrate protein remaining % [2, 8] | IKZF2 substrate protein remaining % [3, 8] | IKZF3 substrate protein remaining % [4, 8] | Wee1 substrate protein remaining % [5, 8] | GSPT1 substrate protein remaining % [6, 8] | inhibition at 0.5 µM [7] | inhibition at 2 µM [7] | CK1α substrate protein remaining % [1, 9] | IKZF 1 substrate protein remaining % [2, 9] | IKZF2 substrate protein remaining % [3, 9] | IKZF3 substrate protein remaining % [4, 9] | Wee1 substrate protein remaining % [5, 9] | GSPT1 substrate protein remaining % [6, 9] | IC50 ([7]; CRBN binding, HTRF, 3 hours at room temperature, read-out: HTRF IC50) |
| --- | --- | --- | --- | --- | --- | --- | --- | --- | --- | --- | --- | --- | --- | --- | --- |
| O=C1CCC(N2Cc3c(CN4CCC(c5ncc6ccsc6n5)CC4)cccc3C2=S)C(=O)N1 (stereo not shown) [GT-08936, 3-(4-((4-(thieno[2,3-d]pyrimidin-2-yl)piperidin-1-yl)methyl)-1-thioxoisoindolin-2-yl)piperidine-2,6-dione] | B (80%< substrate protein remaining %≤ 100%) | A (0% ≤ substrate protein remaining % ≤ 80%) | B (80%< substrate protein remaining %≤ 100%) | B (80%< substrate protein remaining %≤ 100%) | A (0% ≤ substrate protein remaining % ≤ 80%) | A (0% ≤ substrate protein remaining % ≤ 80%) | 60 to 80% | 80 to 100% |  |  |  |  |  |  |  |
| Cc1ccc(Cl)cc1N1CCN(Cc2cccc3c2CN(C2CCC(=O)NC2=O)C3=S)CC1 (stereo not shown) [GT-08505, 3-(4-((4-(5-chloro-2-methylphenyl)piperazin-1-yl)methyl)-1-thioxoisoindolin-2-yl)piperidine-2,6-dione] |  |  |  |  |  |  | 40 to 53% | 60 to 80% | B (80%< substrate protein remaining %≤ 100%) | B (80%< substrate protein remaining %≤ 100%) | B (80%< substrate protein remaining %≤ 100%) | A (0% ≤ substrate protein remaining % ≤ 80%) | A (0% ≤ substrate protein remaining % ≤ 80%) | B (80%< substrate protein remaining %≤ 100%) |  |
| O=C1CCC(N2Cc3c(CN4CCN(c5ncc6ccsc6n5)CC4)cccc3C2=S)C(=O)N1 (stereo not shown) [GT-08927, 3-(4-((4-(thieno[2,3-d]pyrimidin-2-yl)piperazin-1-yl)methyl)-1-thioxoisoindolin-2-yl)piperidine-2,6-dione] | B (80%< substrate protein remaining %≤ 100%) | B (80%< substrate protein remaining %≤ 100%) | A (0% ≤ substrate protein remaining % ≤ 80%) | A (0% ≤ substrate protein remaining % ≤ 80%) | A (0% ≤ substrate protein remaining % ≤ 80%) | B (80%< substrate protein remaining %≤ 100%) | 60 to 80% | 80 to 100% |  |  |  |  |  |  |  |
| O=C1CCC(N2Cc3c(CN4CC5CCC4CN5c4cccc(Cl)c4Cl)cccc3C2=S)C(=O)N1 (stereo not shown) [GT-08469, 3-(4-((5-(2,3-dichlorophenyl)-2,5-diazabicyclo[2.2.2]octan-2-yl)methyl)-1-thioxoisoindolin-2-yl)piperidine-2,6-dione] |  |  |  |  |  |  | 40 to 53% | 60 to 80% | B (80%< substrate protein remaining %≤ 100%) | B (80%< substrate protein remaining %≤ 100%) | B (80%< substrate protein remaining %≤ 100%) | B (80%< substrate protein remaining %≤ 100%) | B (80%< substrate protein remaining %≤ 100%) | A (0% ≤ substrate protein remaining % ≤ 80%) |  |
| O=C1CCC(N2Cc3c(CN4CCN(c5nc(N6CCOCC6)nc6ccsc56)CC4)cccc3C2=S)C(=O)N1 (stereo not shown) [GT-09032, 3-(4-((4-(2-morpholinothieno[3,2-d]pyrimidin-4-yl)piperazin-1-yl)methyl)-1-thioxoisoindolin-2-yl)piperidine-2,6-dione] | B (80%< substrate protein remaining %≤ 100%) | B (80%< substrate protein remaining %≤ 100%) | B (80%< substrate protein remaining %≤ 100%) | B (80%< substrate protein remaining %≤ 100%) | A (0% ≤ substrate protein remaining % ≤ 80%) | B (80%< substrate protein remaining %≤ 100%) | 40 to 53% | 80 to 100% |  |  |  |  |  |  |  |
| O=C1CCC(N2Cc3cc(CN4CCC(c5cccc6c(F)cccc56)CC4)ccc3C2=S)C(=O)N1 (stereo not shown) [GT-09275, 3-(5-((4-(5-fluoronaphthalen-1-yl)piperidin-1-yl)methyl)-1-thioxoisoindolin-2-yl)piperidine-2,6-dione] | B (80%< substrate protein remaining %≤ 100%) | B (80%< substrate protein remaining %≤ 100%) | B (80%< substrate protein remaining %≤ 100%) | B (80%< substrate protein remaining %≤ 100%) | B (80%< substrate protein remaining %≤ 100%) | A (0% ≤ substrate protein remaining % ≤ 80%) | 30 to 40% | 60 to 80% |  |  |  |  |  |  |  |
| O=C1CCC(N2Cc3cc(CN4CCN(c5nc(N6CCOCC6)nc6ccsc56)CC4)ccc3C2=S)C(=O)N1 (stereo not shown) [GT-09333, 3-(5-((4-(2-morpholinothieno[3,2-d]pyrimidin-4-yl)piperazin-1-yl)methyl)-1-thioxoisoindolin-2-yl)piperidine-2,6-dione] | B (80%< substrate protein remaining %≤ 100%) | A (0% ≤ substrate protein remaining % ≤ 80%) | B (80%< substrate protein remaining %≤ 100%) | A (0% ≤ substrate protein remaining % ≤ 80%) | B (80%< substrate protein remaining %≤ 100%) | A (0% ≤ substrate protein remaining % ≤ 80%) | 60 to 80% | 80 to 100% |  |  |  |  |  |  |  |
| Cc1ccc(C2=CCN(Cc3cccc4c3CN(C3CCC(=O)NC3=O)C4=S)CC2)s1 (stereo not shown) [GT-08307, 3-(4-((4-(5-methylthiophen-2-yl)-3,6-dihydropyridin-1(2H)-yl)methyl)-1-thioxoisoindolin-2-yl)piperidine-2,6-dione] | B (80%< substrate protein remaining %≤ 100%) | B (80%< substrate protein remaining %≤ 100%) | B (80%< substrate protein remaining %≤ 100%) | B (80%< substrate protein remaining %≤ 100%) | A (0% ≤ substrate protein remaining % ≤ 80%) | B (80%< substrate protein remaining %≤ 100%) | 53 to 60% | 80 to 100% |  |  |  |  |  |  |  |
| O=C1CCC(N2Cc3cc(CO)ccc3C2=S)C(=O)N1 (stereo not shown) [GT-06977, 3-(5-(hydroxymethyl)-1-thioxoisoindolin-2-yl)piperidine-2,6-dione] | B (80%< substrate protein remaining %≤ 100%) | B (80%< substrate protein remaining %≤ 100%) | B (80%< substrate protein remaining %≤ 100%) | A (0% ≤ substrate protein remaining % ≤ 80%) | A (0% ≤ substrate protein remaining % ≤ 80%) | B (80%< substrate protein remaining %≤ 100%) |  |  |  |  |  |  |  |  | < 100 nM |
| O=C1CCC(N2Cc3c(CN4CCC(c5cccc6c(F)cccc56)CC4)cccc3C2=S)C(=O)N1 (stereo not shown) [GT-08855, 3-(4-((4-(5-fluoronaphthalen-1-yl)piperidin-1-yl)methyl)-1-thioxoisoindolin-2-yl)piperidine-2,6-dione] | B (80%< substrate protein remaining %≤ 100%) | B (80%< substrate protein remaining %≤ 100%) | B (80%< substrate protein remaining %≤ 100%) | B (80%< substrate protein remaining %≤ 100%) | A (0% ≤ substrate protein remaining % ≤ 80%) | A (0% ≤ substrate protein remaining % ≤ 80%) | 30 to 40% | 60 to 80% |  |  |  |  |  |  |  |
